What was measured:
INS-1E cells [1] = experiment: Caspase-3 activity assay (Caspase-Glo 3/7) in cytokine-treated INS-1E cells; format: cell-based, rat; conditions: cytokines, 48 h, Caspase-Glo 3/7
Description: INS-1E cells were seeded at 5,000 cells per well in white optical 384-well plates and treated as described for highthroughput screening. After treatment with cytokines and compounds for 48 h, medium was removed and 20 μL Caspase-Glo 3/7 reagent was added. Luminescence was measured after 2 h of incubation using an EnVision plate reader.

INS-1E cells [2] = experiment: Cellular ATP levels (CellTiter-Glo) in cytokine-treated INS-1E cells; suppression of cytokine-induced beta-cell apoptosis; format: cell-based, rat; conditions: INS-1E cells, cytokines IL-1β, IFN-γ, TNF-α, 48 h, CellTiter-Glo; read-out: CTG EC50 in HTS
Description: The compounds were analyzed for activity utilizing methods described in Chou et al. (ACS Chem. Biol. 2010 Aug. 20; 5(8):729-34).
INS-1E cells were seeded at 10,000 cells per well using a Multidrop Combi (Thermo Labsystems) in white optical 384-well plates (Corning Life Sciences). After overnight incubation, medium was removed and 50 μL of RPMI containing 1% FBS and a combination of cytokines (10 ng mL-^1 IL-1β, 50 ng mL^−1 IFN-γ, 25 ngmL^−1 TNF-α) was added to every well. Using libraries of compounds dissolved in DMSO and a CyBi-Well pin-transfer robot (CyBio Corp.), 0.1 μL of each compound was added. After 48 h, medium was removed and 20 μL of CellTiter-Glo reagent was added. Luminescence was measured after 10 min of incubation using an EnVision plate reader (PerkinElmer).
Instrument output files were processed using Pipeline Pilot (Accelrys) and input to MATLAB (The MathWorks) for data normalization. Compound performance scores relative to a distribution of mock-treated (DMSO) wells were calculated using a revised version of the scoring system underlying ChemBank. (Seiler et al., Nucleic Acids Res. 36, D351-359, 2008). The role of replicate treatments was further developed as follows: first, mock-treatment distributions were modeled using all mock-treated wells measured on a single day, regardless of their nominal replicate; second, per-compound scores weighted each in-plate background-subtracted measurement by the uncertainty in that measurement, using the method of maximum likelihood. The uncertainty in a single background-subtracted measurement was estimated using the number of mock-treated wells on the plate and, as a measure of the assay noise, the standard deviation of the per-day mock-treatment distribution. The signal, a weighted average of differences, was scaled by the noise, the standard deviation of the mock treatment distribution.
INS-1E cells were seeded at 10,000 cells/well using a Multidrop Combi (Thermo Labsystems) in white optical 384-well plates (Corning Life Sciences). After overnight incubation, medium was removed and 50 μL RPMI containing the treated compound, 1% FBS and a combination of cytokines (10 ng/mL IL-1β, 50 ng/mL IFN-γ, 25 ng/mL TNF-α) was added to every well. After incubation for 48 hr, medium was removed and 20 μL CellTiter-Glo reagent was added. Luminescence was measured after 10-min incubation using an EnVision plate reader (PerkinElmer).

beta cells = conditions: HDAC inhibition, presumably by decreasing NF-κB transactivation; cited from earlier work

Structure (SMILES)	EC50 (INS-1E cells [1]) [µM]	EC50 (INS-1E cells [2]) [µM]	cytokine-induced beta-cell death (beta cells)
COc1ccc(S(=O)(=O)N(C)C[C@@H]2Oc3c(NC(=O)c4cccc5ccccc45)cccc3C(=O)N([C@@H](C)CO)C[C@H]2C)cc1 [Compound 35A]	> 25	> 25	
C[C@@H]1CN([C@@H](C)CO)C(=O)c2cccc(NC(=O)Nc3cccc4ccccc34)c2O[C@H]1CN(C)S(=O)(=O)c1cn(C)cn1 [Compound 36A]	> 25	> 25	
Cc1ccc(S(=O)(=O)N(C)C[C@@H]2Oc3c(NC(=O)Nc4ccc(F)cc4)cccc3C(=O)N([C@@H](C)CO)C[C@H]2C)cc1 [Compound 37A]	> 25	> 25	
C[C@@H]1CN([C@@H](C)CO)C(=O)c2cccc(NC(=O)Nc3ccc(F)cc3)c2O[C@H]1CN(C)S(=O)(=O)c1ccc(F)cc1 [Compound 38A]	> 25	> 25	
COc1ccc(S(=O)(=O)N(C)C[C@@H]2Oc3c(NC(=O)Nc4cccc(-c5ncccn5)c4)cccc3C(=O)N([C@@H](C)CO)C[C@H]2C)cc1 [Compound 39A]	> 25	> 25	
COc1ccc(S(=O)(=O)N(C)C[C@@H]2Oc3c(NC(=O)Nc4cccc(-c5ccccc5)c4)cccc3C(=O)N([C@@H](C)CO)C[C@H]2C)cc1 [Compound 40A]	> 25	> 25	
COc1ccc(S(=O)(=O)N(C)C[C@@H]2Oc3c(NC(=O)Nc4cc(F)ccc4F)cccc3C(=O)N([C@@H](C)CO)C[C@H]2C)cc1 [Compound 41A]	> 25	> 25	
COc1ccc(S(=O)(=O)N(C)C[C@@H]2Oc3c(NC(=O)Nc4cccc(C(F)(F)F)c4)cccc3C(=O)N([C@@H](C)CO)C[C@H]2C)cc1 [Compound 42A]	> 25	> 25	
O=C(CCCCCCC(=O)Nc1ccccc1)NO [SAHA, suberoylanilide hydroxamic acid]			can prevent cytokine-induced beta-cell death
CC(/C=C/C(=O)NO)=C\[C@@H](C)C(=O)c1ccc(N(C)C)cc1 [TSA, trichostatin A]			can prevent cytokine-induced beta-cell death

More lines, main results first:

EC50 (INS-1E cells [1]) [µM]	Structure (SMILES)	EC50 (INS-1E cells [2]) [µM]	cytokine-induced beta-cell death (beta cells)
> 25	COc1ccc(S(=O)(=O)N(C)C[C@@H]2Oc3c(NC(=O)Nc4cccc5c4CCCC5)cccc3C(=O)N([C@@H](C)CO)C[C@H]2C)cc1 [Compound 43A]	> 25	
> 25	COc1ccc(S(=O)(=O)N(C)C[C@@H]2Oc3c(NC(=O)Nc4ccc5occc5c4)cccc3C(=O)N([C@@H](C)CO)C[C@H]2C)cc1 [Compound 44A]	> 25	
> 25	COc1ccc(S(=O)(=O)N(C)C[C@@H]2Oc3c(NC(=O)Nc4cccc5c4CC(C)(C)O5)cccc3C(=O)N([C@@H](C)CO)C[C@H]2C)cc1 [Compound 46A]	> 25	
> 25	COc1ccc(S(=O)(=O)N(C)C[C@@H]2Oc3c(NC(=O)Nc4ccc5c(c4)OCCO5)cccc3C(=O)N([C@@H](C)CO)C[C@H]2C)cc1 [Compound 47A]	> 25	
> 25	COc1ccc(S(=O)(=O)N(C)C[C@@H]2Oc3c(NC(=O)Nc4cc(F)cc5c4OCOC5)cccc3C(=O)N([C@@H](C)CO)C[C@H]2C)cc1 [Compound 48A]	> 25	

From patent US8741905B2, “Compounds and methods for treating autoimmune diseases” (The Broad Institute, Inc., priority 2010, dated 2014)
